These results are taken from patent US8445529B2, “Indole derivative having, carbamoyl group, ureido group and substituted oxy group” (Santen Pharmaceutical Co., Ltd., priority 2008, dated 2013).

Molecules are shown by their SMILES.

The experiment addresses T1, IKKβ (Homo sapiens, UniProt O14920).
T1 construct: purchased Upstate Biotechnology Inc. 14-485
T1 sequence (O14920 1-756): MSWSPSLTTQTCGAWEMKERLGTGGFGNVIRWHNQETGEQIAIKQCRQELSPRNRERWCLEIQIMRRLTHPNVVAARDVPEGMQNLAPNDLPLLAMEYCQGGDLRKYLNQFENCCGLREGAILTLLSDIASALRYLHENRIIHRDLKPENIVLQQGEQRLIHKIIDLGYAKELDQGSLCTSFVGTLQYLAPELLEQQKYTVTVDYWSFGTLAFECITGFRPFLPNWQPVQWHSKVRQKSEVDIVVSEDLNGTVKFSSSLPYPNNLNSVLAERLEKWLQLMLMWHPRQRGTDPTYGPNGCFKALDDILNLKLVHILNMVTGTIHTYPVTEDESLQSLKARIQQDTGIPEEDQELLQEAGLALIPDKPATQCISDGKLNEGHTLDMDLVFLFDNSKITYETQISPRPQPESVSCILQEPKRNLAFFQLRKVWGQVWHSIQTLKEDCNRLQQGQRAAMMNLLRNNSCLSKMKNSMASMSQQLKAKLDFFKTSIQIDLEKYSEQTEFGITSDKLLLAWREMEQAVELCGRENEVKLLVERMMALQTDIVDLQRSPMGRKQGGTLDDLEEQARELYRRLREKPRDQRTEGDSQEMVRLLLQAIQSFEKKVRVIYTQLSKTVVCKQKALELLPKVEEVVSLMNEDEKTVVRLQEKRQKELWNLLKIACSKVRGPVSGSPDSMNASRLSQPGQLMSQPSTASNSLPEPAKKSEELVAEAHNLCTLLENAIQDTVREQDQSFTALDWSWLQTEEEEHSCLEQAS
In words: IKKβ inhibition assay by fluorescence polarization (IMAP kit). As to conditions: test compound at 1 μM; inhibition rate exceeding 100% is indicated as 100%. Format: biochemical. Here is the method: Details of the above will be described in detail in [Pharmacological Test] in Examples described below in this specification. IKKβ inhibition assay by fluorescence polarization was performed using IMAP™ IKKβ assay kit (manufactured by Molecular Devices Corporation, catalogue No. R8115) or IMAP™ FP Screening Express kit (manufactured by Molecular Devices Corporation, catalogue No. R8127).
In order to evaluate IKKβ inhibitory activity of the present compounds, an IKKβ inhibition assay by a fluorescence polarization method was conducted. The assay was conducted using IMAP™ IKKβ assay kit (manufactured by Molecular Devices Corporation, catalogue No. R8115) or IMAP™ FP Screening Express kit (manufactured by Molecular Devices Corporation, catalogue No. R8127) in accordance with the protocol attached to each kit. The specific methods are described below.
1) Complete Reaction Buffer: a complete reaction buffer was so prepared to obtain a final composition of 10 mM Tris-HCL (pH 7.2), 10 mM magnesium chloride, 0.1% bovine serum albumin, and 1 mM dithiothreitol.
2) Substrate Working Solution: 400 nM substrate working solution was prepared by dissolving and diluting a fluorescein-labeled IKKβ substrate peptide (amino acid sequence: GRHDSGLDSMK) with the complete reaction buffer.
3) Enzyme Working Solution: 0.2 units/mL enzyme working solution was prepared by diluting IKKβ solution (manufactured by Upstate Biotechnology Inc., catalogue No. 14-485) with the complete reaction buffer.
4) ATP Working Solution: 8 μM ATP working solution was prepared by dissolving ATP into ultrapure water followed by diluting it with the complete reaction buffer.
5) IMAP binding solution: After diluting an IMAP binding buffer with ultrapure water, an IMAP binding solution was prepared by diluting an IMAP binding reagent with the diluted IMAP binding buffer.
A test compound was dissolved in dimethyisulfoxide followed by diluting it with the complete reaction buffer to prepare 4 μM test compound solution.
1) To a 384-well plate, the test compound solution, the enzyme working solution, the substrate working solution, and the ATP working solution were added in an amount of 5 μL per well.
2) Incubation was performed at room temperature for 60 minutes under light shielding.
3) The IMAP binding solution was added in an amount of 60 μL per well.
4) Incubation was performed at room temperature for 30 minutes under light shielding.
5) Fluorescence polarization value of each well was measured by using Analyst™ HT (multimode plate reader manufactured by Molecular Devices Corporation) and Criterion Host Software v2.00 (manufactured by Molecular Devices Corporation).
6) Operations were performed in the same manner as in 1) to 5) except for changing the test compound to 0.4% dimethylsulfoxide. The obtained result was designated as a control.
7) Operations were performed in the same manner as in 1) to 5) except for changing the test compound and the enzyme working solution to 0.4% dimethylsulfoxide and the complete reaction buffer, respectively. The obtained result was designated as a background.
An IKKβ inhibition rate (%) was calculated by the following equation.
IKKβ inhibition rate (%)=100×{1-(fluorescence polarization value of test compound−fluorescence polarization value of background)/(fluorescence polarization value of control−fluorescence polarization value of background)}
On the technique in general: Fluorescence polarisation rises when a labelled molecule tumbles more slowly, as on binding a larger partner.

One may read the inhibition as the share of the control response that was lost under treatment.

The compound `COc1ccc(F)c2c(C(N)=O)c(NC(N)=O)[nH]c12` [Compound No. 1-4, 2-Aminocarbonylamino-4-fluoro-7-methoxyindole-3-carboxamide] came in with an inhibition at 1 µM of 60%. With `Cc1cc([N+](=O)[O-])ccc1Oc1ccc2c(C(N)=O)c(NC(N)=O)[nH]c2c1` [Compound No. 4-6, 2-Aminocarbonylamino-6-(2-methyl-4-nitrophenyloxy)indole-3-carboxamide] the figure was 97%. With `C=Cc1cc(F)c2c(C(N)=O)c(NC(N)=O)[nH]c2c1OC` [Compound No. 8-2, 2-Aminocarbonylamino-4-fluoro-7-methoxy-6-vinylindole-3-carboxamide] the figure was 91%; with `NC(=O)Nc1[nH]c2cc(O)ccc2c1C(N)=O` [Compound No. 2-1, 2-Aminocarbonylamino-6-hydroxyindole-3-carboxamide], 90%; with `NC(=O)Nc1[nH]c2cc(Oc3ccc(Cl)cc3)ccc2c1C(N)=O` [Compound No. 9-1, 2-Aminocarbonylamino-6-(4-chlorophenyloxy)indole-3-carboxamide], 92%. Compound `COc1ccc2c(C(N)=O)c(NC(N)=O)[nH]c2c1` [Compound No. 1-1, 2-Aminocarbonylamino-6-methoxyindole-3-carboxamide] came in with an inhibition at 1 µM of 95%. With `NC(=O)Nc1[nH]c2cc(OCC3CC3)ccc2c1C(N)=O` [Compound No. 3-2, 2-Aminocarbonylamino-6-cyclopropylmethyloxyindole-3-carboxamide] the figure was 91%; with `COc1cccc2c(C(N)=O)c(NC(N)=O)[nH]c12` [Compound No. 1-3, 2-Aminocarbonylamino-7-methoxyindole-3-carboxamide], 78%.

`CC(=O)Nc1ccc(Oc2ccc3c(C(N)=O)c(NC(N)=O)[nH]c3c2)cc1` [Compound No. 6-1, 6-(4-Acetylaminophenyloxy)-2-(aminocarbonylamino)indole-3-carboxamide] displayed an inhibition at 1 µM of 98%. Under `NC(=O)Nc1[nH]c2cc(Oc3ccc([N+](=O)[O-])cc3)ccc2c1C(N)=O` [Compound No. 4-1, 2-Aminocarbonylamino-6-(4-nitrophenyloxy)indole-3-carboxamide] stands 100%. With `NC(=O)Nc1[nH]c2cc(Oc3ccnc(Cl)c3)ccc2c1C(N)=O` [Compound No. 4-3, 2-Aminocarbonylamino-6-(2-chloropyridine-4-yloxy)indole-3-carboxamide] the figure was 89%; with `COc1c(-c2ccoc2)cc(F)c2c(C(N)=O)c(NC(N)=O)[nH]c12` [Compound No. 8-3, 2-Aminocarbonylamino-4-fluoro-6-(furan-3-yl)-7-methoxyindole-3-carboxamide], 87%.
